Assay results: patent US9708628B2, “Cationic lipid having improved intracellular kinetics” (NOF CORPORATION, priority 2011, dated 2017)
Entries after “also recorded” stand apart in the source; their conditions may differ.

Experiments:
[1] = Electron microscope observation by staining method; format: physicochemical; conditions: phosphotungstic acid staining
Experimental: MENDs of B-2 (Example 1) and B-2-4 (Example 4) were prepared according to [Experimental Example 1] (1), (2) and [Experimental Example 15]. For the preparation, PEG2000-DMG was used as PEG lipid, and MEND solutions corresponding to 1.38 mM of the lipid concentration were prepared. A 50% sucrose solution (pH 5.3) (5 mL) was added to a centrifugation tube, on which a 10% sucrose solution (pH 5.3) (5 mL) was layered, and a MEND solution (1.5 mL) was further overlaid to form an discontinuous density gradient. Purification was performed by ultracentrifugation (110000 g, 2 h, 25° C.) (Optima™ L-90K Ultracentrifuge, Sw41Ti, BECKMAN). The interface (4 ml) of sucrose density 10% and 50% was recovered, and sucrose was removed by ultrafiltration (1000 g, 3 min, 25° C.) to give a sample solution. A 2-fold diluted sample solution was adsorbed to a 400 mesh carbon film TEM grid, which was absorbed by a filter paper. A 2% phosphotungstic acid solution (pH 7.0) was added and the mixture was stood for 10 seconds. For observation, a transmission electron microscope (JEM-1200EX, JEOL Ltd.) was used. Accelerating voltage was set to 80 kV, and images were taken by a CCD camera (VELETA, JEOL Ltd.).

Factor VII (FVII) = assay: Knockdown effect of siRNA-encapsulated MEND (plasma FVII); format: in vivo, ICR mice; conditions: 3 mg siRNA/kg, tail vein, 24 hr
Experimental: A siRNA solution and protamine (CALBIOCHEM) solution were diluted with 10 mM HEPES buffer (pH 5.3) to 0.3 mg/mL and 0.2 mg/mL, respectively. While stirring 0.3 mg/mL siRNA solution (250 μL), 0.2 mg/mL protamine solution (250 μL) was added dropwise in small portions to prepared an electrostatic complex of siRNA and protamine (N/P ratio=1.0) as a core of the vector.
As a siRNA sequence for Factor VII (FVII), one described in Akinc et al, Molecular Therapy, 17(5) 872-879 (2009), which was free of chemical modification, was used.
A lipid solution in ethanol was mixed at a ratio of B-2:SOPE:Chol=5:3:2 for B-2 MEND (Example 1), at a ratio of B-2-4:DOPE:Chol=3:3:4 for B-2-4 MEND (Example 4), and at a ratio of B-2-5:POPE:Chol=3:4:3 for B-2-5 MEND (Example 5), to a total lipid of 660 nmol in a 5 mL tube. Further, PEG2000-DMG was added as PEG lipid in an amount equivalent to 3 mol % of the total lipid, and ethanol was added to a total volume of 400 μL each. While stirring the lipid solution by a vortex mixer, a solution (400 μL) of a nucleic acid electrostatic complex composed of siRNA/protamine prepared in [Experimental Example 27] was mixed, then 10 mM HEPES buffer (pH 5.3, 2.4 mL) was quickly added, and the mixture was vigorously stirred. The mixture was subjected to centrifugal ultrafiltration using Amicon Ultra-15 100K device (Millipore) at 1000 g, 10 min, 30° C. The mixture was sufficiently diluted with 10 mM HEPES buffer (pH 7.4), and again subjected to centrifugal ultrafiltration. This solution was adjusted to an object lipid concentration with 10 mM HEPES buffer (pH 7.4).
A MEND solution prepared by the method shown in [Experimental Example 28] was administered to 4-week-old male ICR mice at 3 mg siRNA/kg from the tail vein, and blood was collected 24 hr later. This blood sample was centrifuged at 1000 g, 10 min, 4° C., and the supernatant was recovered to obtain plasma. The amount of Factor VII (FVII) in the plasma was quantified by BIOPHEN FVII CHROMOGENIC ASSAY (HYPHEN BioMed).

[2] = Liposome destabilization test in reductive environment (DTT, TNS fluorescence); format: physicochemical; conditions: 10 mM DTT, 37° C., 0-24 hr; TNS at pH 4.0
Experimental: DTT was added to various MEND solutions to a final concentration of 10 mM and the mixtures were stood at 37° C. The fluorescence intensity was measured using TNS (6-(p-Toludino)-2-Naphthalene Sulfonic acid) at the time points of 0, 1, 2, 4, 8, 24 hr later. The MEND solutions were diluted to 0.5 mM. The 0.5 mM MEND solution (12 μL), 20 mM citrate buffer (186 μL, containing 150 mM NaCl, acidic pH (pH 4.0)), and 0.6 mM TNS (2 μL) were added to a 96-well plate for fluorescence measurement (Nunc), and the fluorescence intensity was measured at excitation wavelength 321 nm, detection wavelength 447 nm, at 37° C. As a control, MEND solution added with the same amount of 10 mM HEPES buffer free of DTT at 0 hr and stood for each time at 37° C. was used, and the fluorescence intensity was measured using TNS by the same treatment. The fluorescence intensity under reductive environment was divided by the fluorescence intensity of the control and used as an index of the destabilization of lipid membrane.
As a result, attenuation of TNS fluorescence due to the DTT treatment was not observed in DODAP and B-2-1 not having a disulfide bond. […] TNS is adsorbed, under an acidic environment of pH 4.0, to a particle surface having a positive surface potential via electrostatically interactions, and emits fluorescence according to the liposoluble environment of the lipid structure part of a liposome.

HT1080 cells = assay: Intracellular kinetics: decapsulation of pDNA from MEND (confocal microscopy); format: cell-based; conditions: 3 hr after transfection
Experimental: For MEND preparation, the Rhodamine-labeled pDNA prepared by the method of [Experimental Example 1] (4) was used. In addition, the fluorescence label of the lipid constituting MEND was measured by the method described in [Experimental Example 1] (3). MENDs having a composition of cationic lipid:SOPE:Chol=5:3:2 were prepared by the method described in [Experimental Example 1] (2). For the preparation, PEG2000-DMG was used as PEG lipid, and MEND solutions corresponding to 0.55 mM of the lipid concentration were prepared. For cationic MEND, a lipid having a composition of DOTAP:DOPE:Chol:=3:4:3 was used, and the cationic MEND was prepared according to the method described in [Experimental Example 1] (3). […]
HT1080 cells were plated on a glass bottom dish at 1×10^5 cells/2 mL/dish 24 hr before. B-2 MEND was diluted with Krebs buffer to achieve pDNA 8 μg/1 mL Krebs buffer/dish. As for B-2-1 or DOTAP MEND, MEND was diluted with Krebs buffer to achieve pDNA 1.6 μg/1 mL Krebs buffer/dish and transfected. After 2.5 hr, Hoechst 33342 was added at 1 μL/dish and, 30 min later, the cells were washed twice with heparin solution (20 units/mL, 2 mL), Krebs buffer (1 mL) was added, and the cells were observed by a confocal laser scan microscope.
Rhodamine-labeled pDNA, lipid membrane of MEND and nucleus were shown in pseudo colors of red, green and blue, respectively.

attenuation of TNS fluorescence due to DTT treatment (destabilization of lipid membrane) [2] | SMILES | structure of MEND by transmission electron microscope [1] | FVII expression level in plasma (knockdown effect) (Factor VII (FVII)) | gene decapsulation (colocalization of pDNA red and MEND lipid green) (HT1080 cells)
– | CC1=C(/C=C/C(C)=C/C=C/C(C)=C/C(=O)OCCCN(C)CCSSCCN(C)CCCOC(=O)/C=C(C)/C=C/C=C(C)/C=C/C2=C(C)CCCC2(C)C)C(C)(C)CCC1 [Example B-2-4] | structure coated with a monolayer lipid membrane | decrease in the FVII expression level as compared to the non-treatment group | –
not observed | CCCCCCCC/C=C\CCCCCCCC(=O)OCC(CN(C)C)OC(=O)CCCCCCC/C=C\CCCCCCCC (centres unmarked) [DODAP, reference compound] | – | – | –
– | CCCCCCCC/C=C\CCCCCCCC(=O)OCC(C[N+](C)(C)C)OC(=O)CCCCCCC/C=C\CCCCCCCC (centres unmarked) [DOTAP, reference compound] | – | – | Red dots were notable
not observed | CCCCCCCCCCCCCC(=O)OCCCN(C)CCCCCCN(C)CCCOC(=O)CCCCCCCCCCCCC [Example B-2-1, reference compound] | – | – | clear colocalization of red and green
– | Cc1c(C)c2c(c(C)c1OC(=O)CCC(=O)OCCCN(C)CCSSCCN(C)CCCOC(=O)CCC(=O)Oc1c(C)c(C)c3c(c1C)CCC(C)(CCCC(C)CCCC(C)CCCC(C)C)O3)CCC(C)(CCCC(C)CCCC(C)CCCC(C)C)O2 (centres unmarked) [Example B-2-5] | – | decrease in the FVII expression level as compared to the non-treatment group; also recorded: greatest knockdown effect | –

SMILES | attenuation of TNS fluorescence due to DTT treatment (destabilization of lipid membrane) [2] | structure of MEND by transmission electron microscope [1] | FVII expression level in plasma (knockdown effect) (Factor VII (FVII)) | gene decapsulation (colocalization of pDNA red and MEND lipid green) (HT1080 cells)
CCCCCCCCCCCCCC(=O)OCCCN(C)CCSSCCN(C)CCCOC(=O)CCCCCCCCCCCCC [Example B-2] | disappearance of TNS fluorescence in a time-dependent manner | structure coated with a monolayer lipid membrane | decrease in the FVII expression level as compared to the non-treatment group | Red dots were notable
